Laboratory results reported in publication PMC10227015, “From a drug repositioning to a structure-based drug design approach to tackle acute lymphoblastic leukemia” (Nature Communications, 2023).
pKd: −log10 of the molar value.

What was measured:
[1] = system: CCRF-CEM cells; assay: Annexin V apoptosis assay; assay type: cell-based, human; conditions: 72 h, dT 200 µM, others 1 µM, presence of dC
Description: CCRF-CEM cells were seeded at 100,000 cells/ml, and treated with DMSO (0.01%) as vehicle control or dT (200 μΜ), and/or dC, OR0642, DI-87 and DI-39 (1 μΜ). For cell cycle analysis, cells were harvested after 24 h, fixed in 4% paraformaldehyde, permeabilized with 0.15% Triton X100, and DNA content was determined using 1 μg/ml DAPI. For apoptosis assay, cells were harvested after 72 h and cell death was assayed using Annexin V-APC and 7AAD following manufacturer’s instructions (Biolegend, 640930). For γH2A.X measurements, cells were harvested after 24 h, fixed in 4% paraformaldehyde and permeabilized with 0.15% Triton X100. Then, cells were stained with the phospho-H2AX (pS139 H2AX, Biolegend, 613402, 1:1000) specific primary antibody, Alexa-Fluor 488 secondary antibody (ThermoFisher, A21202, 1:1000) and DAPI. All acquisitions were performed on a BD Fortessa cytometer, and analysis of flow cytometry data was performed using FlowJo™ Software 10.7.1 (BD Life Sciences). Each experiment was performed three times. Figures exemplifying the gating strategy are provided in the Supplementary Information (Supplementary Figs. 29–31).

[2] = system: CCRF-CEM-CRISPR-sgRNA-dCK− cell line; assay: Proliferation of CCRF-CEM CRISPR-Cas9 cell line deficient for dCK; assay type: cell-based, human; conditions: dT 200 µM, dC 1 µM
Description: CCFR-CEM cells (obtained from O. Hermine laboratory, Paris, France) were grown at 37 °C in RPMI 1640 with L-glutamine, supplemented with 10% heat-inactivated fetal calf serum. The experiments were carried out on 96-well plates under the following conditions: 14,000 cells per well, RPMI 1640 culture medium supplemented with 10% heat-inactivated fetal calf serum, 200 μM of dT, 1 μM of dC and a range of dilutions of each compound ranging from 40 μM to 10 pM, depending on the activity of the compounds (final 0.2% DMSO). Cells were incubated for 72 h under these different conditions and finally, incubated with 10 µl/well of CellTiter-Blue reagent (Promega) for 4 h at 37 °C. The amount of reduced dye formed by metabolically active cells was quantified by its fluorescence measured at 560 nm (excitation) and 590 nm (emission) in a microplate reader (CLARIOstar, BMG Labtech). A blank well without cells was used as a background control. Each experiment was performed at least three times (with technical triplicates) and data are presented as the mean ± SD.
Stable CCRF-CEM-CRISPR-sgRNA-dCK^− cell line was established by lentiviral transduction using purified lentiviral particles (Horizon Discovery) and blasticidin selection (10 µg/ml). […]

[3] = biological target: dCK-C3S-S74E; assay: Isothermal titration calorimetry (ITC); assay type: binding, human; conditions: 25 °C
dCK-C3S-S74E, sequence (P27707 whole entry S74E, form open): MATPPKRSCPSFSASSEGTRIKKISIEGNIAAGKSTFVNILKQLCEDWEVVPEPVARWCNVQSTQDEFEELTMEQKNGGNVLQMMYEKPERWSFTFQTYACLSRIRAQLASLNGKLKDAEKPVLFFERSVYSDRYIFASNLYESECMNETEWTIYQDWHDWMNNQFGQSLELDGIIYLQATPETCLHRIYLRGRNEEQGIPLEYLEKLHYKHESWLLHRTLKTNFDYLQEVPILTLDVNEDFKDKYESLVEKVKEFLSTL
Description: BL21 pRIL Escherichia coli cells were transformed with dCK-plasmids (dCK-C4S-S74E (for crystallization assays) and dCK-C3S-S74E (for TSA, enzymatic and ITC assays)). Protein dCK-C4S-S74E used for crystallization assays contained four mutations in order to generate better quality crystals (four solvent-exposed cysteine residues were mutated to serine; C9S, C45S, C59S and C146S). Protein dCK-C3S-S74E used for other assays contained only three mutated cysteines. The S74E mutation mimics the phosphorylated state of this serine, which favors the open conformation of the enzyme, making it competent for nucleoside binding[45] to evaluate the binding affinity with compounds. E. coli cells were grown in LB media containing 100 μg/ml ampicillin and 34 μg/ml chloramphenicol at 18 °C for 20 h after induction with 1 mM IPTG.
For binding assays (TSA, ITC and crystallography) cells were re-suspended in 50 mM TRIS, pH 8, 500 mM NaCl, 30 mM imidazole and 10% glycerol buffer and one EDTA free anti-protease tablet was added (Roche). After sonication and centrifugation (30,000 × g), the supernatant was loaded on a 5 ml HisTrap FF column (GE healthcare) pre-equilibrated with resuspension buffer. Protein was then eluted by resuspension buffer containing 500 mM imidazole. Protein eluted fractions were mixed and concentrated. […]

Row | Structure (SMILES) | apoptosis, Annexin V staining [1] | effect on cell proliferation [2] | pKd [3]
1 | CCCN(c1nc(-c2nc(N)cc(N)n2)cs1)c1cc(-c2ccc(S(=O)(=O)N3CCN(C)CC3)cc2C(F)(F)F)ccc1C [OR0642] | neither dT nor OR0642 alone induced DNA damage or apoptosis | did not affect cell proliferation | –
2 | Cc1ccc(NC(=O)c2ccc(CN3CCN(C)CC3)cc2)cc1Nc1nc(-c2nccc(N)n2)cs1 [dCKi1] | – | – | 6.89
3 | Cc1ccc(NC(=O)c2ccc(CN3CCN(C)CC3)cc2)cc1Nc1nc(-c2nc(N)cc(N)n2)cs1 [dCKi2, N-(3-((4-(4,6-diaminopyrimidin-2-yl)thiazol-2-yl)amino)-4-methylphenyl)-4-((4-methylpiperazin-1-yl)methyl)benzamide] | – | – | 7.43
4 | Cc1cn([C@H]2C[C@H](O)[C@@H](CO)O2)c(=O)[nH]c1=O [dT, thymidine] | neither dT nor OR0642 alone induced DNA damage or apoptosis | – | –
